Data as given in patent publication US6242439A, “Azetidinone derivatives for the treatment of HCMV infections” (Boehringer Ingelheim (Canada) Ltd., priority 1998, dated 2001).
Like-named read-outs stand apart in the source and are kept apart here. Non-standard residues stand in square brackets, D forms with d. Residues, ends and D or L forms follow the SMILES beside them. Tyr(3-NO2) = N[C@@H](Cc1ccc(O)c([N+](=O)[O-])c1)C(=O)O; 2Abz = Nc1ccccc1C(=O)O

Key:
HCMV NO protease = HCMV NO protease (Human cytomegalovirus, UniProt P16753); experiment: HCMV NO Protease Assay (inhibition of cleavage of internally quenched fluorogenic peptide substrate); format: biochemical; details: for IC50: 100 nM HCMV NO protease, 5 μM substrate, 2.5 h at 30°, pH 8
Procedure: This particular assay determines the ability of a test compound to inhibit the activity of HCMV protease. More specifically, in the assay described herein, the inhibitory activity of the test compound is evaluated on the basis of its ability to interfere with the HCMV No protease cleavage of a fluorogenic peptide substrate which in turn is based on the maturation cleavage site of the enzyme.
A. HCMV NO Protease Assay
Material & Methods: Fluorescence measurements were recorded on a Perkin-Elmer LS-50B spectrofluorimeter equipped with a plate reader accessory. UV measurements were recorded on a Thermomax® microplate reader from Molecular Devices Corporation, Menlo Park, Calif., USA.
HCMV NO protease was assayed with an internally quenched fluorogenic substrate based on the maturation cleavage site (Abz-[…](3-NO2)R--OH, kcat /KM =260 M^-1 s^-1). The fluorescence increase upon cleavage of the Ala-Ser amide bond was monitored using excitation λ=312 nm (slit 2.5 nm) and emission λ=415 nm (slit 5 nm). A protocol adaptable to a 96-well plate format was designed for the determination of IC50 values of inhibitors. […] After this period, enzymatic hydrolysis of the fluorogenic substrate in the absence of inhibitor led to about a 30% conversion. Quenching was not required before fluorescence measurement since the total scanning time by the plate reader accessory was brief relative to the duration of the reaction. The aqueous incubation buffer contained 50 mM tris(hydroxymethyl)aminomethane.HCl pH 8, 0.5M Na2 SO4, 50 mM NaCl, 0.1 mM EDTA, 1 mM tris(2-carboxyethyl)phosphine.HCl, 3% v/v DMSO and 0.05% w/v casein. The final concentrations of HCMV NO protease (expressed in terms of total monomer concentration) and substrate were 100 nM and 5 μM respectively. IC50 values were obtained through fitting of the inhibition curve to a competitive inhibition model using SAS NLIN procedure. The mode of inhibition was determined by measurements of the initial rates (in cuvettes) at various substrate concentrations in the buffer as described above. The IC50 values listed in the following tables the IC50 were obtained according to this assay.

[1] = system: HCMV (strain AD169, ATCC VR-538); experiment: Plaque Reduction Assay (PRA); format: cell-based, human cytomegalovirus (HCMV); details: Hs-68 cells, approximately 50 PFU HCMV AD169, 8 days at 37°
Procedure: B. Plaque Reduction Assay (PRA)
Hs-68 cells (ATCC #CRL 1635) were seeded in 12-well plates at 83,000 cells/well in 1 mL of DMEM medium (Gibco Canada Inc.) supplemented with 10% fetal bovine serum (FBS, Gibco Canada Inc.). The plates were incubated for 3 days at 37° to allow the cells to reach 80-90% confluency prior to the assay.
The medium was removed from the cells by aspiration. The cells were then infected with approximately 50 PFU of HCMV (strain AD169, ATCC VR-538) in DMEM medium supplemented with 5% inactivated FBS (assay medium). (DMEM medium is commercially available and has been described by R. Dulbecco et al., Virology 1959, 8, 396.) The virus was allowed to adsorb to cells for 2 h at 37°. Following viral adsorption, the medium was removed from the wells by aspiration. The cells were then incubated with or without 1 mL of appropriate concentrations of test reagent in assay medium. Occasionally, test compounds were added 24 h post-infection. After 4 days of incubation at 37°, the medium was exchanged with fresh medium containing test compound and 4 days later the cells were fixed with 1% aqueous formaldehyde and stained with a 2% violet solution in 20% ethanol in water. Microscopic plaques were counted using a stereomicroscope. Drug effects were calculated as a percent reduction in the number of plaques in the presence of each drug concentration compared to the number observed in the absence of drug. Ganciclovir was used as a positive control in all experiments.

[2] = Cytotoxic effects, tetrazolium salt (MTT) metabolic assay; format: cell-based; details: read-out: TC50 (the source's name)
Procedure: In conjunction with the appropriate starting materials and intermediates, the procedures of examples 1 to 11 can be used to prepare other compounds of formula 1. Examples of compounds thus prepared are listed in the following Tables I, II and III together with mass spectrum data for the compounds, and results from the assays A and B of example 12. Cytotoxic effects noted as TC50 in the following tables were determined according to the tetrazolium salt (MTT) metabolic assay, F. Denizot and F. Lang, J. Immun. Meth., 1986, 89, 271.

[3] = Human betaherpesvirus 5, AD169, Hs68, 192 h, read-out: EC50

Sequence of HCMV NO protease (P16753 1-256): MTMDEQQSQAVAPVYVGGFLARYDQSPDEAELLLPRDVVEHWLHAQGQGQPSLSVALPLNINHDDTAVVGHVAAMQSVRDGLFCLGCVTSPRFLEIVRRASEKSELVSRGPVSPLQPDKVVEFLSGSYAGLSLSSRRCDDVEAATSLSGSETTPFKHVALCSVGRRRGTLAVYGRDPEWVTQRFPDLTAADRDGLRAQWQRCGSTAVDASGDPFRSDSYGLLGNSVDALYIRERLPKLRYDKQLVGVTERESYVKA

SMILES | IC50 (HCMV NO protease) [µM] | EC50 [1, 3] [µM] | CC50 [2] [µM] | EC50 [1] [µM] | kcat/KM (HCMV NO protease; fluorogenic substrate of HCMV NO protease) [M⁻¹ s⁻¹]
CC[C@@H](NC(=O)N1C(=O)C[C@@H]1[C@@H](C)CC)c1ccccc1 [Entry 217] | 11 | 85 | > 250 |  | 
C[C@@H]1C(=O)N(C(=O)NCc2ccccc2)[C@H]1Cc1ccccc1 [Entry 207, 4(S)-Benzyl-3(S)-methyl-2-oxoazetidine-1-carboxylic acid benzylamide] | 5.3 | 140 | > 250 |  | 
CN(Cc1ccc(C(F)(F)F)cc1)C(=O)N1C(=O)C[C@@H]1Cc1ncoc1-c1ccccc1 [Entry 220] | 14 |  |  |  | 
CN(Cc1ccc(C(F)(F)F)cc1)C(=O)N1C(=O)CC1Cc1nnn(C)n1 (stereo in doubt) [Entry 223, 4(R)-(2-methyl-2H-tetrazol-5-ylmethyl)-2-oxoazetidine-1-carboxylic acid N-methyl-N{{(4-trifluoromethyl)phenyl}methyl}amide] | 5.7 | 94 | > 195 |  | 
O=C1C[C@H](Cc2ccccc2)N1C(=O)NCc1ccccn1 [Entry 143] | 33 |  |  |  | 
CN(Cc1ccc(C(F)(F)F)cc1)C(=O)N1C(=O)C[C@@H]1Cc1nccs1 [Entry 231] | 2.7 |  | > 25 | 11 | 
CN(Cc1ccc([N+](=O)[O-])cc1)C(=O)N1C(=O)C[C@@H]1Cc1nc2ccccc2s1 [Entry 225] | 0.7 | 30 | > 50 |  | 
C[C@@H]1C(=O)N(C(=O)Nc2ccccc2)[C@H]1Cc1ccccc1 [Entry 203] | 0.81 | > 250 | > 250 |  | 
CC[C@H]1CC(=O)N1C(=O)N[C@H](CC)c1ccccc1 [Entry 214] | 7.6 | 180 | > 250 |  | 
CN(Cc1ccc([N+](=O)[O-])cc1)C(=O)N1C(=O)C[C@@H]1Cc1nnn(C)n1 [Entry 224] | 2.7 | 100 | > 133 |  | 
CC[C@@H](NC(=O)N1C(=O)C[C@@H]1CCc1ccccc1)c1ccccc1 [Entry 212] | 4.3 | 140 | > 250 |  | 
CC(C)C[C@H](NC(=O)[C@H](CCCNC(=N)N)NC(=O)[C@H](CO)NC(=O)[C@H](CO)NC(=O)[C@H](C)NC(=O)[C@H](CC(N)=O)NC(=O)[C@@H](NC(=O)[C@@H](NC(=O)c1ccccc1N)C(C)C)C(C)C)C(=O)N[C@@H](Cc1ccc(O)c([N+](=O)[O-])c1)C(=O)N[C@@H](CCCNC(=N)N)C(=O)O [reference compound] (H-[2Abz]VVNASSRL[Tyr(3-NO2)]R-OH) |  |  |  |  | 260
O=C1C[C@H](Cc2ccccc2)N1C(=O)Nc1ccncc1 [Entry 107] | 1.9 | > 250 | > 250 |  | 
CN(Cc1ccc(S(=O)(=O)C(F)(F)F)cc1)C(=O)N1C(=O)C[C@@H]1Cc1ccccc1 [Entry 139] | 4.3 | > 250 | > 250 |  | 
COc1c(C)cc(NC(=O)N2C(=O)C[C@@H]2Cc2ccccc2)cc1C [Entry 106] | 2.4 | 190 | > 250 |  | 
CN(Cc1cccc([N+](=O)[O-])c1)C(=O)N1C(=O)C[C@@H]1Cc1ccccc1 [Entry 133] | 6.9 | 170 | > 250 |  | 
CN(Cc1ccc(N)cc1)C(=O)N1C(=O)C[C@@H]1Cc1ccccc1 [Entry 125] | 13.4 |  |  |  | 
O=C1C[C@H](Cc2ccccc2)N1C(=O)N1CCOCC1 [Entry 301] | 142 |  |  |  | 
CN(Cc1ccc([S+]([O-])C(F)(F)F)cc1)C(=O)N1C(=O)C[C@@H]1Cc1ccccc1 (stereo partly drawn) [Entry 138] |  | > 250 | > 250 |  | 
O=C1C[C@H](Cc2ccccc2)N1C(=O)Nc1ccccc1 [Entry 104] |  | > 250 | > 250 |  | 

SMILES | IC50 (HCMV NO protease) [µM] | EC50 [1, 3] [µM] | CC50 [2] [µM] | EC50 [1] [µM] | kcat/KM (HCMV NO protease; fluorogenic substrate of HCMV NO protease) [M⁻¹ s⁻¹]
O=C1C[C@H](Cc2ccccc2)N1C(=O)NC1CCc2ccccc21 (stereo partly drawn) [Entry 140] | 14 |  |  |  | 
CC(c1ccccc1)N(C)C(=O)N1C(=O)CC1Cc1ccccc1 (stereo not drawn) [Entry 120] | 17.7 |  |  |  | 
O=C1C[C@H](Cc2ccccc2)N1C(=O)N1CCCc2ccccc21 [Entry 304] | 154 |  |  |  | 
CN(CC(=O)OCc1ccccc1)C(=O)N1C(=O)C[C@@H]1Cc1ccccc1 [Entry 115] | 11.7 |  |  |  | 
CCC(NC(=O)N1C(=O)C[C@@H]1Cc1ccccc1)c1ccncc1 (stereo partly drawn) [Entry 108] | 28 |  |  |  | 
O=C1C[C@H](Cc2ccccc2)N1C(=O)N1CCCC1 [Entry 303] | 63 |  |  |  | 
C[C@H](c1ccccc1)N(C)C(=O)N1C(=O)C[C@@H]1Cc1ccccc1 [Entry 119] | 24 |  |  |  | 
O=C1C[C@H](Cc2ccccc2)N1C(=O)N1CCc2ccccc2C1 [Entry 302] | 36 |  |  |  | 
CC(NC(=O)N1C(=O)CC1Cc1ccccc1)c1ccccc1 (stereo not drawn) [Entry 141] | 42 |  |  |  | 
CN(CCc1ccccc1)C(=O)N1C(=O)C[C@@H]1Cc1ccccc1 [Entry 114] | 38 |  |  |  | 
CN(C)C(=O)N1C(=O)C[C@@H]1Cc1ccccc1 [Entry 113] | 50 |  |  |  | 
CN(Cc1ccc(C(F)(F)F)cc1)C(=O)N1C(=O)C[C@@H]1Cc1ccccc1 [Entry 135, 4(S)-Benzyl-2-oxoazetidine-1-carboxylic acid N-methyl-N-{{4-(trifluoromethyl)phenyl}methyl}amide] |  | 190 | > 250 |  | 
CN(Cc1ccccc1)C(=O)N1C(=O)C[C@@H]1Cc1ccccc1 [Entry 112] |  | 150 | > 150 |  | 
CO[C@@H]1C(=O)N(C(=O)NCc2ccncc2)[C@H]1Cc1ccccc1 [Entry 210, 4(S)-Benzyl-3(S)-methoxy-2-oxoazetidine-1-carboxylic acid (4-pyridinylmethyl)amide] |  | 210 | > 250 |  | 
C[C@@H]1C(=O)N(C(=O)NCc2ccncc2)[C@H]1Cc1ccccc1 [Entry 201] |  | 190 | > 250 |  | 
COc1ccc(CN(C)C(=O)N2C(=O)C[C@@H]2Cc2ccccc2)cc1 [Entry 130] |  | 110 | > 250 |  | 
CC[C@@H](NC(=O)N1C(=O)C[C@H]1C(C)(C)C)c1ccccc1 [Entry 215, 4(S)-tert-Butyl-2-oxoazetidine-1-carboxylic acid (1(R)-phenylpropyl)amide] | 41 |  |  |  | 
CCC(c1ccccc1)N(C)C(=O)N1C(=O)CC1Cc1ccccc1 (stereo not drawn) [Entry 123] | 30 |  |  |  | 
CCC(CC)NC(=O)N1C(=O)C[C@@H]1Cc1ccccc1 [Entry 110] | 38 |  |  |  | 
